SMILES strings stand for the structures.

For one assay, the system named is SARS-CoV-2. The assay is described as follows: CPE inhibition assay, anti-SARS-CoV-2 virus activity in vitro (Test Example 4). It counts as cell-based. The settings on record: CPE inhibition at 10 µM; VeroE6-TMPRSS2 cells; MOI 0.01; third day post infection; average of three tests.
For `CCOC(=O)[C@@H]1CCC2=C3N(Cc4ccccc4)C(=O)N(Cc4ccccc4)C(=O)N3[C@H](Cc3ccccc3)C(=O)N21` [Compound 1B, Ethyl (6R,9S)-1,3,6-tribenzyl-2,4,7-trioxo-1,3,4,6,7,9,10,11-octahydro-2H-pyrrolo[2',1':3,4]pyridazine[1,2-a][1,3,5]triazine-9-carboxylate], the “Anti SARS-CoV-2 activity” value was “C (less than 1%)”.
Still for that read-out and setting: in the case of `O=C(O)[C@@H]1CC[C@H]2N1C(=O)[C@@H](Cc1ccccc1)N1C(=O)N(Cc3ccccc3)C(=O)N(Cc3ccccc3)[C@]21O` [Compound 1C, (6R,9S,11aR,11bR)-1,3,6-Tribenzyl-11b-hydroxy-2,4,7-trioxo-2H-pyrrolo[2',1':3,4]pyridazino[1,2-a][1,3,5] triazine-9-carboxylic acid] it was “C (less than 1%)”.
Consider `O=C1[C@@H](Cc2ccccc2)N2C(=O)N(Cc3ccccc3)C(=O)N(Cc3ccccc3)[C@]2(O)[C@H]2CC[C@@H](CNCc3ccc4ccccc4c3)N12` [Compound 1F, (6R,9S,11aR,11bR)-1,3,6-Tribenzyl-11b-hydroxy-9-(((naphthalen-2-ylmethyl)amino)methyl)hexahydro-2H-pyrrolo[2',1':3,4]pyridazine[1,2-a][1,3,5]triazine-2,4,7(3H,6H)-trione], for which the “Anti SARS-CoV-2 activity” value is given as “C (less than 1%)”.
The same measure, in the same setting: then `CC(C)[C@@H]1C(=O)N2[C@H](C3=NCc4cn(-c5c[nH]c6ccccc56)c5cccc3c45)CC[C@@H]2[C@@]2(O)N(Cc3ccccc3)C(=O)N(Cc3ccccc3)C(=O)N12` [Compound 3H, (6R,95,11aR,11bR)-9-(1-((1H-indole-3-yl))-1,3-dihydropyrrolo[4,3,2-de]isoquinolin-5-yl)-1,3-dibenzyl-11b-hydroxy-6-isopropylhexahydro-2H-pyrrolo [2',1':3,4]pyridazine [1,2-a][1,3,5] triazine-2,4,7 (3H. 6H)-trione], with “A (a CPE inhibition effect of 5% or more)”; and `O=C(NCc1ccc2ccccc2c1)[C@@H]1CC[C@H]2N1C(=O)[C@@H](Cc1ccccc1)N1C(=O)N(CC3CCCC3)C(=O)N(CC3CCCC3)[C@]21O` [Compound 17D, (6R,9S,11aR,11bR)-6-Benzyl-1,3-bis (cyclopentylmethyl)-11b-h ydroxy-N-(naphthalen-2-ylmethyl)-2,4,7-trioxodecahydro-2H-pyrrolo[2',1':3,4] pyridazino[1,2-a][1,3,5] triazine-9-carboxamide], with “A (a CPE inhibition effect of 5% or more)”; and `CC(C)OC(=O)[C@@H]1CC[C@H]2N1C(=O)[C@@H](Cc1ccccc1)N1C(=O)N(Cc3cccs3)C(=O)N(Cc3cccs3)[C@]21O` [Compound 18G, Isopropyl (6R,9S,11aR,11bR)-6-benzyl-11b-hydroxy-2,4,7-trioxo-1,3-bis(thiophen-2-ylmethyl)decahydro-2H-pyrrolo [2',1':3,4]pyridazine[1,2-a][1,3,5]triazine-9-carboxylate], with “A (a CPE inhibition effect of 5% or more)”.
For `CCN(C(=O)NCCCN(C)C)C(=O)[C@@H]1CC[C@H]2N1C(=O)[C@@H](Cc1ccccc1)N1C(=O)N(Cc3cccs3)C(=O)N(Cc3cccs3)C21O` (stereo partly drawn) [Compound 18H, (6R,9S,11aR)-6-benzyl-N-((3-(dimethylamino)propyl)carbamoil)-N-ethyl-11b-Hydroxy-2,4,7-trioxo-1,3-bis(thiophen-2-ylmethyl)decahydro-2H-pyrrolo[2',1':3,4] pyrazino[1,2-a][1,3,5]triazine-9-carboxamide], the “Anti SARS-CoV-2 activity” value is given as “A (a CPE inhibition effect of 5% or more)”.

Still in this assay, the particulars now being: Severe acute respiratory syndrome coronavirus 2, VeroE6/TMPRSS2, 72 h, read-out: Anti SARS-CoV-2 activity.
As to `CCOC(=O)[C@@H]1CCC2=C3N(Cc4ccccc4)C(=O)N(Cc4ccccc4)C(=O)N3[C@H](Cc3ccccc3)C(=O)N21` (stereo in doubt) [Compound 4B, Ethyl (6R,9S)-1,3,6-tribenzyl-2,4,7-trioxo-1,3,4,6,7,9,10,11-octahydro-2H-pyrrolo[2',1':3,4] pyrazino[1,2-a][1,3,5]triazine-9-carboxylate], the inhibition at 10 µM was more than 5%.
For the compound `CCOC(=O)[C@@H]1CC[C@H]2N1C(=O)[C@@H](Cc1ccccc1)N1C(=O)N(Cc3ccccc3)C(=O)N(Cc3ccccc3)[C@]21O` [Compound 1A, Ethyl (6R,9S,11aR,11bR)-1,3,6-tribenzyl-11b-hydroxy-2,4,7-trioxodecahydro-2H-pyrrolo[2',1':3,4]pyrazino[1,2-a][1,3,5]triazine-9-carboxylate], the inhibition at 10 µM is less than 1%.
Still for that read-out and setting: then `O=C(NCc1ccc2ccccc2c1)[C@@H]1CCC2=C3N(Cc4ccccc4)C(=O)N(Cc4ccccc4)C(=O)N3[C@H](Cc3ccccc3)C(=O)N21` [Compound 1E, (6R,9S)-1,3,6-Tribenzyl-N-(naphthalen-2-ylmethyl)-2,4,7-trioxo-1,3,4,6,7,9,10,11-octahydro-2H-pyrrolo[2',1':3,4] pyrazino[1,2-a][1,3,5]triazine-9-carboxamide], with less than 1%.
In the case of `CCOC(=O)[C@@H]1CCC2=C3N(Cc4ccccc4)C(=O)N(Cc4ccccc4)C(=O)N3[C@H](C(C)C)C(=O)N21` [Compound 3B, Ethyl (6R.9S) 1,3-dibenzyl 6 isopropyl-2.4.7 trioxo-1,3,4,6,7,9,10,11-octahydro 2H-pyrrolo[2',1':3.4]pyrazi no[1,2 a][1,3,5] triazine 9 carboxylate], the inhibition at 10 µM is more than 5%.
Turning to `CC(C)[C@@H]1C(=O)N2[C@H](C(=O)NCc3ccccc3)CC[C@@H]2[C@@]2(O)N(Cc3ccccc3)C(=O)N(Cc3ccccc3)C(=O)N12` [Compound 3F, (6R,9S,11aR,11bR)-N,1,3-tribenzyl-11b-hydroxy-6-isopropyl-2,4,7-trioxodecahydro-2H-pyrrolo[2',1':3,4]pyrazino[1,2-a][1,3,5]triazine-9-carboxamide], the inhibition at 10 µM is more than 5%.
For `O=C(NCc1ccc2ccccc2c1)[C@H]1CCC2=C3N(Cc4ccccc4)C(=O)N(Cc4ccccc4)C(=O)N3[C@@H](Cc3ccccc3)C(=O)N21` [Compound 4E, (6S,9R)-1,3,6-Tribenzyl-N-(naphthalen-2-ylmethyl)-2,4,7-trioxo-1,3,4,6,7,9,10,1 1-octahydro-2H-pyrrolo [2',1':3,4]pyrazino[1,2-a] [1,3,5]triazine-9-carboxamide], the inhibition at 10 µM was in the range of 1 to 5%.
Same read-out and setting: then `CCOC(=O)[C@@H]1CC[C@H]2N1C(=O)[C@@H](Cc1ccc3ccccc3c1)N1C(=O)N(Cc3ccccc3)C(=O)N(Cc3ccccc3)[C@]21O` [Compound 7A, Ethyl (6R,9S,11aR,11bR)-1,3-dibenzyl-11b-hydroxy-6-(naphthalen-2-ylmethyl)-2,4,7-trioxodecahydro-2H-pyrrolo[2',1' :3,4]pyrazino[1,2-a][1,3,5]triazine-9-carboxylate], with less than 1%; and `O=C(NCc1ccc2ccccc2c1)[C@@H]1CCC2=C3N(Cc4ccccc4)C(=O)N(Cc4ccccc4)C(=O)N3[C@H](Cc3ccc4ccccc4c3)C(=O)N21` [Compound 7E, (6R,9S)-1,3-Dibenzyl-N,6-Bis(naphthalen-2-ylmethyl) -2,4,7-trioxo-1,3,4,6,7,9,10, 11-octahydro-2H-pyrrolo [2',1':3,4]pyrazino[1,2-a] [1,3,5]triazine-9-carboxamide], with 1 to 5%; and `O=C(NCc1ccc2ccccc2c1)[C@@H]1CCC2=C3N(Cc4ccccc4)C(=O)N(Cc4ccccc4)C(=O)N3[C@H](CC3CCCC3)C(=O)N21` [Compound 8E, (6R,9S)-1,3-Dibenzyl-6-(cyclopentylmethyl)-N-(naphthalen-2-ylmethyl)-2,4,7-trioxo-1,3,4,6,7,9,10,11-octahydro-2H-pyrrolo [2',1':3,4]pyrazino[1,2-a] [1,3,5]triazine-9-carboxamide], with less than 1%.
Consider `O=C1[C@@H](Cc2ccccc2)N2C(=O)N(Cc3ccccc3)C(=O)N(Cc3ccccc3)C2=C2CCCN12` [Compound 9B, (R) 1.3.6-Tribenzyl-1,9,10,11-tetrahydro-2H-pyrrolo[2',1':3,4] pyridazino[1,2-a][1,3,5]triazine-2,4,7(3H,6H)-trione], for which the inhibition at 10 µM was less than 1%.
For the compound `O=C1[C@H](Cc2ccccc2)N2C(=O)N(Cc3ccccc3)C(=O)N(Cc3ccccc3)C2=C2C[C@@H](OCc3ccccc3)CN12` [Compound 11B, (6S,10R)-1,3,6-Tribenzyl-10-(benzoxy)-1,9,10,11-tetrahydro-2 H-pyrrolo[2',1':3,4]pyridazino [1,2-a][1,3,5]triazine-2,4,7 (3H,6H)-trione], the inhibition at 10 µM was more than 5%.
In the case of `O=C1[C@@H](Cc2ccccc2)N2C(=O)N(Cc3ccccc3)C(=O)N(Cc3ccccc3)C2=C2CCCCN12` [Compound 13B, (R) 1,3,6-Tribenzyl-9,10,11,12-tetrahydropyrido[2',1':3,4] pyrazino[1,2-a][1,3,5]triazine-2,4,7(1H,3H,6H)-trione], the inhibition at 10 µM is 1 to 5%.
As to `O=C1C(Cc2ccccc2)N2C(=O)N(Cc3ccccc3)C(=O)N(Cc3ccccc3)C2=C2C[C@@H](OCc3ccccc3)CN12` (stereo partly drawn) [Compound 15B, (6R,10R)-1,3,6-tribenzyl-10-(benzyloxy)-1,9,10,11-tetrahydro-2H-pyrrolo[2',1':3,4] pyridazino[1,2-a][1,3,5] triazine-2,4,7(3H,6H)-trione], the inhibition at 10 µM is less than 1%.
On to `O=C(NCc1ccc2ccccc2c1)[C@@H]1CCC2=C3N(c4ccccc4)C(=O)N(c4ccccc4)C(=O)N3[C@H](Cc3ccccc3)C(=O)N21` [Compound 16E, (6R,9S)-6-Benzyl-N-(naphthalen-2-ylmethyl)-2,4,7-trioxo-1,3-diphenyl-1,3,4,6,7,9,10,11-octahydro-2H-pyrrolo [2',1':3,4]pyrazino[1,2-a][1,3,5]triazine-9-carboxamide], for which the inhibition at 10 µM is 1 to 5%.
Turning to `CNC(=O)[C@@H]1CC[C@H]2N1C(=O)[C@@H](Cc1ccccc1)N1C(=O)N(Cc3cccs3)C(=O)N(Cc3cccs3)[C@]21O` [Compound 18F, (6R,9S,11aR,11bR)-6-benzyl-11b-hydroxy-N-methyl-2,4,7-trioxo-1,3-bis(thiophen-2-ylmethyl)decahydro-2H-pyrrolo [2',1':3,4]pyrazino[1,2-a][1,3,5]triazine-9-carboxamide], the inhibition at 10 µM lay within 1 to 5%.

(Values after EP4707279A1, “SUBSTITUTED TRICYCLIC HETEROCYCLIC COMPOUND AS PHARMACEUTICAL FOR TREATMENT OR PREVENTION OF COVID-19” (priority 2023, dated 2024).)
